The target of the test is T1, 11β-HSD1 (Homo sapiens, UniProt P28845).
T1 construct: detecting cortisol generated from cortisterone by human liver microsomes; from tissue; host or cells: human liver microsomes
As to the kind of experiment: In vitro inhibition of 11β-HSD1, HTRF detection of cortisol generated from cortisone by human liver microsomes. The class given is biochemical. To be noted: 11β-HSD IC50 (nM), 1 hour at 37° C., pH 6.0, NADPH 200 μM, cortisone 80 nM, inhibition relative to carbenoxolone signal. The essentials: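 Inhibition expressed against the carbenoxolone signal and fitted to IC50 curves. Readout: HTRF competition between microsomal cortisol and XL665-labelled cortisol for Eu-cryptate anti-cortisol antibody (typically 2 h), with emission ratio 665/615 calibrated to cortisol concentration.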
(In general: In TR-FRET formats the signal depends on donor and acceptor labels being close together.)

This is an account of results in patent US8859580B2 (Boehringer Ingelheim International GmbH, priority 2007, dated 2014).

T1 sequence (P28845 whole entry): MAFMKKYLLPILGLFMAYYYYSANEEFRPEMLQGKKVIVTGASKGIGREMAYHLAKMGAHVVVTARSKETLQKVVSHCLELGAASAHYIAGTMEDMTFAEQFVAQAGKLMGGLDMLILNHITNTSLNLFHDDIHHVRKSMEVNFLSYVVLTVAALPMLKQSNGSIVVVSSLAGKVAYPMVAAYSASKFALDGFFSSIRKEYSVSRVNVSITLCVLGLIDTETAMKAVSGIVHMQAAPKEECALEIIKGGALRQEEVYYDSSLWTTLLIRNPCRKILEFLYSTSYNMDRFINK

By IC50 is commonly meant the point on the concentration scale where inhibition reaches its midpoint. In turn, `CC1(C)[C@H]2Cc3cc4nc(-c5cccnc5)[nH]c4cc3[C@]1(C)CCN2C(=O)c1ccc2nc[nH]c2c1` [Example 274, (3H-Benzoimidazol-5-yl)-[(6R,10S)-5,6,7,8,9,10-hexahydro-10,12,12-trimethyl-2-pyridin-3-yl-6,10-methano-imidazo[5,4-i][3]benzazocin-7-yl]-methanone] yielded an IC50 of 51 nM. For the molecule `CC1(C)[C@H]2Cc3cc4nc([C@@H]5CCCO5)[nH]c4cc3[C@]1(C)CCN2C(=O)c1ccc2nc[nH]c2c1` [Example 275, (3H-Benzoimidazol-5-yl)-[(6R,10S)-5,6,7,8,9,10-hexahydro-10,12,12-trimethyl-2-[(S)-tetrahydrofuran-2-yl]-6,10-methano-imidazo[5,4-i][3]benzazocin-7-yl]-methanone], the IC50 is 25 nM. This IC50 is about 2-fold lower than that of the molecule before.

For the molecule `CC1(C)[C@H]2Cc3cc4nc(-c5ccnnc5)[nH]c4cc3[C@]1(C)CCN2C(=O)c1ccc2nc[nH]c2c1` [Example 276, (3H-Benzoimidazol-5-yl)-[(6R,10S)-5,6,7,8,9,10-hexahydro-10,12,12-trimethyl-2-pyridazin-4-yl-6,10-methano-imidazo[5,4-i][3]benzazocin-7-yl]-methanone], the IC50 was 34 nM. Turning to `Cc1cnc(-c2nc3cc4c(cc3[nH]2)[C@]2(C)CCN(C(=O)c3ccc5nc[nH]c5c3)[C@H](C4)C2(C)C)cn1` [Example 277, (3H-Benzoimidazol-5-yl)-[(6R,10S)-5,6,7,8,9,10-hexahydro-10,12,12-trimethyl-2-(5-methyl-pyrazin-2-yl)-6,10-methano-imidazo[5,4-i][3]benzazocin-7-yl]-methanone], the IC50 was found to be 34 nM.

On to `CC1(C)[C@H]2Cc3ccccc3[C@]1(C)CCN2C(=O)c1ccc2nccnc2c1` [Example 278, Quinoxalin-6-yl-[(2R,6S)-6,11,11-trimethyl-1,2,5,6-tetrahydro-4H-2,6-methano-benzo[d]azocin-3-yl]-methanone], for which the IC50 is 438 nM.

In turn, `C[C@@H]1[C@H]2Cc3ccc(-c4ccn(C)c(=O)c4)cc3[C@]1(C)CCN2C(=O)c1ccc2nc[nH]c2c1` [Example 279, (3H-Benzoimidazol-5-yl)-[(2R,6R,11S)-6,11-dimethyl-8-(1-methyl-2-oxo-1,2-dihydro-pyridin-4-yl)-1,2,5,6-tetrahydro-4H-2,6-methano-benzo[d]azocin-3-yl]-methanone] had an IC50 of 52 nM. As to `CC1(C)[C@H]2Cc3ccccc3[C@]1(C)CCN2C(=O)c1ccc([N+](=O)[O-])cc1` [Example 280, (4-Nitro-phenyl)-[(2R,6S)-6,11,11-trimethyl-1,2,5,6-tetrahydro-4H-2,6-methano-benzo[d]azocin-3-yl]-methanone], the IC50 turned out to be 1260 nM. This IC50 is about 24-fold higher than that of the molecule before. The result for `CC1(C)[C@H]2Cc3ccccc3[C@]1(C)CCN2C(=O)c1c(F)c(F)c(N)c(F)c1F` [Example 281, (4-Amino-2,3,5,6-tetrafluoro-phenyl)-[(2R,6S)-6,11,11-trimethyl-1,2,5,6-tetrahydro-4H-2,6-methano-benzo[d]azocin-3-yl]-methanone] reads 918 nM; that for `CC1(C)[C@H]2Cc3ccccc3[C@]1(C)CCN2C(=O)c1ccc2ccccc2c1` [Example 282, Naphthalen-2-yl-[(2R,6S)-6,11,11-trimethyl-1,2,5,6-tetrahydro-4H-2,6-methano-benzo[d]azocin-3-yl]-methanone], 409 nM. Next, `CC1(C)[C@H]2Cc3ccccc3[C@]1(C)CCN2C(=O)c1cc(Cl)c(N)c(Cl)c1` [Example 283, (4-Amino-3,5-dichloro-phenyl)-[(2R,6S)-6,11,11-trimethyl-1,2,5,6-tetrahydro-4H-2,6-methano-benzo[d]azocin-3-yl]-methanone]: 55 nM; `CC1(C)[C@H]2Cc3ccccc3[C@]1(C)CCN2C(=O)c1cccc2ccccc12` [Example 284, Naphthalen-1-yl-[(2R,6S)-6,11,11-trimethyl-1,2,5,6-tetrahydro-4H-2,6-methano-benzo[d]azocin-3-yl]-methanone]: 666 nM.
